pIC50: −log10 of the molar value. Where “and” joins values, the source holds several entries; their conditions need not be identical. Identical values can stand only once.
Test system: 323965-272-R-J2-PDC complex spheroid viability
Experiment: Anticancer human tumor 323965-272-R-J2-PDC patient-derived pancreatic carcinoma cell line growth inhibition [CLK]
Conditions: for viability, T/C: stronger effect = lower value
Outline: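 Patient-derived tumor cells grown as complex spheroids with HUVEC endothelial cells and mesenchymal stem cells, treated with drug combinations. Concentrations descend in half-log steps from near clinical Cmax, or from 10 microM if Cmax unknown.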

[1] = curve of first compound, second compound 0.0316 µM
[2] = curve of first compound, second compound 0.1 µM
[3] = curve of first compound, second compound 0.316 µM
[4] = curve of first compound, second compound 1 µM
[5] = curve of first compound, second compound 3.16 µM
[6] = curve of first compound, second compound 10 µM
[7] = second compound 0.0316 µM, first compound 0.0316 µM
[8] = second compound 0.0316 µM, first compound 0.1 µM
[9] = second compound 0.0316 µM, first compound 0.316 µM
[10] = second compound 0.0316 µM, first compound 1 µM
[11] = second compound 0.1 µM, first compound 0.0316 µM
[12] = second compound 0.1 µM, first compound 0.1 µM
[13] = second compound 0.1 µM, first compound 0.316 µM
[14] = second compound 0.1 µM, first compound 1 µM
[15] = second compound 0.316 µM, first compound 0.0316 µM
[16] = second compound 0.316 µM, first compound 0.1 µM
[17] = second compound 0.316 µM, first compound 0.316 µM
[18] = second compound 0.316 µM, first compound 1 µM
[19] = second compound 1 µM, first compound 0.0316 µM
[20] = second compound 1 µM, first compound 0.1 µM
[21] = second compound 1 µM, first compound 0.316 µM
[22] = second compound 1 µM, first compound 1 µM
[23] = second compound 3.16 µM, first compound 0.0316 µM
[24] = second compound 3.16 µM, first compound 0.1 µM
[25] = second compound 3.16 µM, first compound 0.316 µM
[26] = second compound 3.16 µM, first compound 1 µM
[27] = second compound 10 µM, first compound 0.0316 µM
[28] = second compound 10 µM, first compound 0.1 µM
[29] = second compound 10 µM, first compound 0.316 µM
[30] = second compound 10 µM, first compound 1 µM
[31] = second compound 0.0316 µM, first compound 0.00316 µM
[32] = second compound 0.0316 µM, first compound 0.01 µM
[33] = second compound 0.1 µM, first compound 0.00316 µM
[34] = second compound 0.1 µM, first compound 0.01 µM
[35] = second compound 0.316 µM, first compound 0.00316 µM
[36] = second compound 0.316 µM, first compound 0.01 µM
[37] = second compound 1 µM, first compound 0.00316 µM
[38] = second compound 1 µM, first compound 0.01 µM
[39] = second compound 3.16 µM, first compound 0.00316 µM
[40] = second compound 3.16 µM, first compound 0.01 µM
[41] = second compound 10 µM, first compound 0.00316 µM
[42] = second compound 10 µM, first compound 0.01 µM
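Further: spheroids exposed to agents for seven days before readout.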
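Wherever viability, T/C is given: percent of DMSO vehicle control wells so 100% = untreated growth.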

`CC1COCCN1c1cc(C2(S(C)(=N)=O)CC2)nc(-c2ccnc3[nH]ccc23)n1` (stereo not drawn) + CNC(=O)c1ccc(Nc2nc(OC3CCCC3)c3c(-c4ccc5nc(C)oc5c4)c[nH]c3n2)c(OC)c1 was tested, and the pIC50 [1] was 5.68, the pIC50 [2] was 5.77 and the pIC50 [3] was 5.93. The pIC50 [4] was greater than 7.50, the pIC50 [5] was greater than 7.50 and the pIC50 [6] was greater than 7.50. The viability, T/C [7] was 109%, the viability, T/C [8] was 106% and the viability, T/C [9] was 90.7%. The viability, T/C [10] was 70.1%, the viability, T/C (second compound 0.0316 µM, first compound 3.16 µM) was 38.2% and the viability, T/C (second compound 0.0316 µM, first compound 10 µM) was 25.6%. The viability, T/C [11] was 94%, the viability, T/C [12] was 93.8% and the viability, T/C [13] was 64.2%. For the same compound, the viability, T/C [14] was 64.2%, the viability, T/C (second compound 0.1 µM, first compound 3.16 µM) was 37.8% and the viability, T/C (second compound 0.1 µM, first compound 10 µM) was 33.9%. For the same compound, the viability, T/C [15] was 58.5%, the viability, T/C [16] was 61.5% and the viability, T/C [17] was 61.2%. The viability, T/C [18] was 51.1%, the viability, T/C (second compound 0.316 µM, first compound 3.16 µM) was 37.4% and the viability, T/C (second compound 0.316 µM, first compound 10 µM) was 27.7%. For the same compound, the viability, T/C [19] was 43.4%, the viability, T/C [20] was 48.9% and the viability, T/C [21] was 40.7%. It also gave a viability, T/C [22] of 33.8%, a viability, T/C (second compound 1 µM, first compound 3.16 µM) of 24% and a viability, T/C (second compound 1 µM, first compound 10 µM) of 18.7%. The viability, T/C [23] was 41.7%, the viability, T/C [24] was 36.9% and the viability, T/C [25] was 39.2%. The viability, T/C [26] was 31.5%, the viability, T/C (second compound 3.16 µM, first compound 3.16 µM) was 24.1% and the viability, T/C (second compound 3.16 µM, first compound 10 µM) was 18.7%. It also gave a viability, T/C [27] of 46.8%, a viability, T/C [28] of 42.6% and a viability, T/C [29] of 38.5%. The viability, T/C [30] was 28.5%, the viability, T/C (second compound 10 µM, first compound 3.16 µM) was 22% and the viability, T/C (second compound 10 µM, first compound 10 µM) was 16.8%.
With `CC(=O)O[C@H]1C(=O)[C@@]2(C)[C@H]([C@H](OC(=O)c3ccccc3)[C@]3(O)C[C@H](OC(=O)[C@H](O)[C@@H](NC(=O)c4ccccc4)c4ccccc4)C(C)=C1C3(C)C)[C@]1(OC(C)=O)CO[C@@H]1C[C@@H]2O` the viability, T/C (compound 0.0316 µM) was 35.3% and 32%, the viability, T/C (compound 0.1 µM) was 36.8% and 34.2% and the viability, T/C (compound 0.316 µM) was 33.2% and 32.9%. For the same compound, the viability, T/C (compound 1 µM) was 34.6% and 33.4%, the viability, T/C (compound 3.16 µM) was 39.6% and 35.1% and the viability, T/C (compound 10 µM) was 35.9% and 36.3%. It also gave a pIC50 (curve of compound) greater than 7.50.
`CCc1c2c(nc3ccc(O)cc13)-c1cc3c(c(=O)n1C2)COC(=O)[C@]3(O)CC` + CNC(=O)c1ccc(Nc2nc(OC3CCCC3)c3c(-c4ccc5nc(C)oc5c4)c[nH]c3n2)c(OC)c1 showed a pIC50 [1] of 8.10, a pIC50 [2] of 8.09 and a pIC50 [3] of 8.38. It also gave a pIC50 [4] greater than 8.50, a pIC50 [5] greater than 8.50 and a pIC50 [6] greater than 8.50. The viability, T/C [31] was 73.5%, the viability, T/C [32] was 42.4% and the viability, T/C [7] was 33%. The viability, T/C [8] was 30.2%, the viability, T/C [9] was 24.4% and the viability, T/C [10] was 23.4%. It also gave a viability, T/C [33] of 61%, a viability, T/C [34] of 47.1% and a viability, T/C [11] of 39%. The viability, T/C [12] was 29.9%, the viability, T/C [13] was 25% and the viability, T/C [14] was 24%. For the same compound, the viability, T/C [35] was 54.1%, the viability, T/C [36] was 38.7% and the viability, T/C [15] was 30%. For the same compound, the viability, T/C [16] was 27.9%, the viability, T/C [17] was 18.4% and the viability, T/C [18] was 16.8%. The viability, T/C [37] was 34.8%, the viability, T/C [38] was 25.8% and the viability, T/C [19] was 21.9%. The viability, T/C [20] was 16.6%, the viability, T/C [21] was 15.2% and the viability, T/C [22] was 10.9%. The viability, T/C [39] was 30.9%, the viability, T/C [40] was 30.1% and the viability, T/C [23] was 25.3%. For the same compound, the viability, T/C [24] was 14.3%, the viability, T/C [25] was 17% and the viability, T/C [26] was 11.9%. It also gave a viability, T/C [41] of 30.5%, a viability, T/C [42] of 23.6% and a viability, T/C [27] of 20.9%. It also gave a viability, T/C [28] of 16%, a viability, T/C [29] of 14.2% and a viability, T/C [30] of 8.54%.
With `Cn1ncnc1[C@H]1c2n[nH]c(=O)c3cc(F)cc(c23)N[C@@H]1c1ccc(F)cc1` + CNC(=O)c1ccc(Nc2nc(OC3CCCC3)c3c(-c4ccc5nc(C)oc5c4)c[nH]c3n2)c(OC)c1 the pIC50 [1] was less than 7.00, the pIC50 [2] was less than 7.00 and the pIC50 [3] was less than 7.00. It also gave a pIC50 [4] greater than 9.50, a pIC50 [5] greater than 9.50 and a pIC50 [6] greater than 9.50. For the same compound, the viability, T/C (second compound 0.0316 µM, first compound 0.000316 µM) was 126%, the viability, T/C (second compound 0.0316 µM, first compound 0.001 µM) was 118% and the viability, T/C [31] was 104%. It also gave a viability, T/C [32] of 110%, a viability, T/C [7] of 86.8% and a viability, T/C [8] of 97.1%. It also gave a viability, T/C (second compound 0.1 µM, first compound 0.000316 µM) of 86.2%, a viability, T/C (second compound 0.1 µM, first compound 0.001 µM) of 75.3% and a viability, T/C [33] of 78.9%. The viability, T/C [34] was 85.3%, the viability, T/C [11] was 76.1% and the viability, T/C [12] was 66%. The viability, T/C (second compound 0.316 µM, first compound 0.000316 µM) was 69.6%, the viability, T/C (second compound 0.316 µM, first compound 0.001 µM) was 66.7% and the viability, T/C [35] was 55.5%. It also gave a viability, T/C [36] of 67.8%, a viability, T/C [15] of 70% and a viability, T/C [16] of 51.6%. The viability, T/C (second compound 1 µM, first compound 0.000316 µM) was 41.3%, the viability, T/C (second compound 1 µM, first compound 0.001 µM) was 45.5% and the viability, T/C [37] was 48.5%. It also gave a viability, T/C [38] of 38.3%, a viability, T/C [19] of 52% and a viability, T/C [20] of 43.4%. For the same compound, the viability, T/C (second compound 3.16 µM, first compound 0.000316 µM) was 36.7%, the viability, T/C (second compound 3.16 µM, first compound 0.001 µM) was 47.2% and the viability, T/C [39] was 42.4%. It also gave a viability, T/C [40] of 43.9%, a viability, T/C [23] of 51.5% and a viability, T/C [24] of 43.3%. For the same compound, the viability, T/C (second compound 10 µM, first compound 0.000316 µM) was 37.1%, the viability, T/C (second compound 10 µM, first compound 0.001 µM) was 36.6% and the viability, T/C [41] was 42.6%. It also gave a viability, T/C [42] of 45.7%, a viability, T/C [27] of 43.1% and a viability, T/C [28] of 43.1%.

Reference: PubChem BioAssay AID2060619 (Molecular Pharmacology Branch, DTP, NCI, 2025)
